In US20060039996A1, “Method for treating sepsis” (priority 2004, published 2006):

System: B. Pseudomonas aeruginosa
Assay: Induced peritoneal sepsis, survival
Assay type: in vivo
Details: for Survival (animals alive): bacteria + Gentamycin 1.0 mg/ml i.p.
Protocol: Mice (C3H) were induced with B. Pseudomonas aeruginosa to have peritoneal sepsis, with resultant infection injury to the lung. Fox-Dewhurst, R., et al., Am. J Respir. Crit. Care Med., 155:2030-2040 (1997). Groups of animals (n=4 per group) were treated with doses of bacteria (108-1010 cfu/ml) in the peritoneum. Injection bacteria was prepared in saline at 10×10^7 cfu/ml. 0.3 ml of bacterial solution was injected into the peritoneal cavity. After three minutes, 0.3 ml of saline or 0.5 ml of electrolyzed saline solution was injected intraperitoneally. A group of animals was treated with Gentamycin as a positive control to compare the effectiveness of 25%, 50%, and 100% electrolyzed saline solutions. This group of animals was treated at the time of bacterial inoculation with Gentamycin at a concentration of 1.0 mg/ml intraperitoneally.
Six study groups of mice were studied: saline control, Gentamycin positive control, bacteria plus 25% electrolyzed saline solution, bacteria plus 50% electrolyzed saline solution, bacteria plus 100% electrolyzed saline solution, and bacteria plus saline.

Substance: Gentamycin
- Survival (animals alive) (24 hrs, n=4): 4
- clinical appearance of animals (48 hours, Gentamicin 1.0 mg/ml i.p.): still normal with no sign of sickness
- Survival (animals alive) (48 hrs, n=4): 4
- survival rate (72 hours, Gentamicin 1.0 mg/ml i.p.): 50%
- animals died (72 hours, Gentamicin 1.0 mg/ml i.p., n=4): 2
- Survival (animals alive) (72 hrs, n=4): 2
